Results from US20260138990A1, “TRICYCLIC FUSED IMIDAZOLE COMPOUNDS AS CD38 MODULATORS AND USES THEREOF” (AEOVIAN PHARMACEUTICALS, INC., priority 2023, published 2026).

Columns and labels:
human CD38 = biological target: T1, human CD38 (Homo sapiens, UniProt P28907); assay: NAD+ cyclase activity assay with human recombinant CD38 protein (ε-NAD fluorescence); assay type: biochemical; conditions: 1.9 nM human CD38, substrate ε-NAD, 30 min preincubation, fluorescence 300/410 nm
T1 construct: purchased Bio-Techne GmbH AVI2404
T1 sequence (P28907 1-300): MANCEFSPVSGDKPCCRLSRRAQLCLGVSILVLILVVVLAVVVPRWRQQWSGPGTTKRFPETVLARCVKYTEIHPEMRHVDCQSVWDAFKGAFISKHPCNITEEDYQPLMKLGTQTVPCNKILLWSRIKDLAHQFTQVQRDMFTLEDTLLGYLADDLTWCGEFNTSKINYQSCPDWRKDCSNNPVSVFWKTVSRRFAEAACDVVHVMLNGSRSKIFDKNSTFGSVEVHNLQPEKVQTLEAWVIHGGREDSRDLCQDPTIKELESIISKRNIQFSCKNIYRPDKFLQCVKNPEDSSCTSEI
Procedure, shortened: (§1)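 Twelve-point threefold compound dilutions were given 30 min at room temperature with 0.6 nM mouse or 1.9 nM human CD38 before […] ε-NAD was added (pH 7.5 HEPES/sucrose/Tween buffer). The rate came from the linear-phase slope of ex 300/em 410 nm fluorescence against vehicle and no-CD38 controls.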

mouse CD38 = biological target: T2, mouse CD38 (Mus musculus, UniProt P56528); assay: NAD+ cyclase activity assay with mouse recombinant CD38 protein (ε-NAD fluorescence); assay type: biochemical; conditions: 0.6 nM mouse CD38, substrate ε-NAD, 30 min preincubation, fluorescence 300/410 nm
T2 construct: purchased Bio-Techne GmbH 4947-AC
T2 sequence (P56528 1-304): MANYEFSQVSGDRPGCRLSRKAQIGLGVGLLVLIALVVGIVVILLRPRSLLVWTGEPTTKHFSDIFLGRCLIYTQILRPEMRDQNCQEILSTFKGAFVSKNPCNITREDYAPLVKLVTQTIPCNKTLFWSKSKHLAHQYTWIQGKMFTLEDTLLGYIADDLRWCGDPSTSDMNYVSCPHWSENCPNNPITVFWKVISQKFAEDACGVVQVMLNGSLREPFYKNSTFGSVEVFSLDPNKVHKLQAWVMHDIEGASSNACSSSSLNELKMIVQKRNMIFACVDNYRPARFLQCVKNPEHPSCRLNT
Procedure, shortened: as §1

Row | IC50 (human CD38) [nM] | IC50 (mouse CD38) [nM] | SMILES
1 | 100 to 1000 | 1 to 10 | CC(=O)N[C@H]1CC[C@H](NC(=O)c2ccc3c(c2)-c2cncn2CCO3)CC1 [Compound 60A, N-((1r,4r)-4-Acetamidocyclohexyl)-5,6-dihydrobenzo[f]imidazo[1,5-d][1,4]oxazepine-10-carboxamide]
2 | < 30 | < 1 | O=C(N[C@H]1CC[C@H](C(=O)NCC(F)(F)F)CC1)c1ccc2c(c1)-c1cncn1CCO2 [Compound 61A, N-((1r,4r)-4-((2,2,2-Trifluoroethyl)carbamoyl)cyclohexyl)-5,6-dihydrobenzo[f]imidazo[1,5-d][1,4]oxazepine-10-carboxamide]
3 | < 30 | 1 to 10 | O=C(N[C@H]1CC[C@H](NCC(F)(F)F)CC1)c1ccc2c(c1)-c1cncn1CCO2 [Compound 62A, N-((1r,4r)-4-((2,2,2-Trifluoroethyl)amino)cyclohexyl)-5,6-dihydrobenzo[f]imidazo[1,5-d][1,4]oxazepine-10-carboxamide]
4 | < 30 | 1 to 10 | O=C(N[C@H]1CC[C@H](NCC(F)F)CC1)c1ccc2c(c1)-c1cncn1CCO2 [Compound 63A, N-((1r,4r)-4-((2,2-Difluoroethyl)amino)cyclohexyl)-5,6-dihydrobenzo[f]imidazo[1,5-d][1,4]oxazepine-10-carboxamide]
5 | 100 to 1000 | 10 to 100 | O=C(N[C@H]1CC[C@@H](N2CC(F)(F)C2)CC1)c1ccc2c(c1)-c1cncn1CCO2 [Compound 64A, N-((1s,4s)-4-(3,3-Difluoroazetidin-1-yl)cyclohexyl)-5,6-dihydrobenzo[f]imidazo[1,5-d][1,4]oxazepine-10-carboxamide]
6 | < 30 | < 1 | O=C(N[C@H]1CC[C@H](CO)CC1)c1ccc2c(c1)-c1cncn1CCO2 [Compound 65A, N-((1r,4r)-4-(Hydroxymethyl)cyclohexyl)-5,6-dihydrobenzo[f]imidazo[1,5-d][1,4]oxazepine-10-carboxamide]
7 | < 30 | < 1 | O=C(NC1CCC(F)(F)C1)c1ccc2c(c1)-c1cncn1CCO2 (stereo not drawn) [Compound 66A, N-(3,3-Difluorocyclopentyl)-5,6-dihydrobenzo[f]imidazo[1,5-d][1,4]oxazepine-10-carboxamide]
8 | 100 to 1000 | 1 to 10 | COCCC(=O)N[C@H]1CC[C@H](NC(=O)c2ccc3c(c2)-c2cncn2CCO3)CC1 [Compound 67A, N-((1r,4r)-4-(3-Methoxypropanamido)cyclohexyl)-5,6-dihydrobenzo[f]imidazo[1,5-d][1,4]oxazepine-10-carboxamide]
9 | 100 to 1000 | 10 to 100 | CC1COc2ccc(C(=O)N[C@@H]3CCCOC3)cc2-c2cncn21 (stereo partly drawn) [Compound 68A, 5-Methyl-N—((R)-tetrahydro-2H-pyran-3-yl)-5,6-dihydrobenzo[f]imidazo[1,5-d][1,4]oxazepine-10-carboxamide]
10 | 100 to 1000 | 10 to 100 | O=C(N[C@H]1CC[C@@H](N2CCC(F)(F)C2)CC1)c1ccc2c(c1)-c1cncn1CCO2 [Compound 69A, N-((1s,4s)-4-(3,3-Difluoropyrrolidin-1-yl)cyclohexyl)-5,6-dihydrobenzo[f]imidazo[1,5-d][1,4]oxazepine-10-carboxamide]
11 | 100 to 1000 | 10 to 100 | COCCO[C@H]1CC[C@H](NC(=O)c2ccc3c(n2)-n2cncc2CCO3)CC1 [Compound 70A, N-((1r,4r)-4-(2-Methoxyethoxy)cyclohexyl)-6,7-dihydroimidazo[1,5-d]pyrido[3,2-b][1,4]oxazepine-2-carboxamide]
12 | < 30 | 1 to 10 | O=C(N[C@H]1CC[C@H](N2CCC(F)(F)C2)CC1)c1ccc2c(c1)-c1cncn1CCO2 [Compound 71A, N-((1r,4r)-4-(3,3-Difluoropyrrolidin-1-yl)cyclohexyl)-5,6-dihydrobenzo[f]imidazo[1,5-d][1,4]oxazepine-10-carboxamide]
13 | < 30 | < 1 | O=C(N[C@H]1CC[C@H](N2CC(F)(F)C2)CC1)c1ccc2c(c1)-c1cncn1CCO2 [Compound 72A, N-((1r,4r)-4-(3,3-Difluoroazetidin-1-yl)cyclohexyl)-5,6-dihydrobenzo[f]imidazo[1,5-d][1,4]oxazepine-10-carboxamide]
14 | < 30 | < 1 | O=C(NC1CCC(F)(F)CC1)c1cc(F)c2c(c1)-c1cncn1CCO2 [Compound 73A, N-(4,4-Difluorocyclohexyl)-8-fluoro-5,6-dihydrobenzo[f]imidazo[1,5-d][1,4]oxazepine-10-carboxamide]
15 | 30 to 100 | 1 to 10 | C[C@@H](N[C@H]1CC[C@H](NC(=O)c2ccc3c(c2)-c2cncn2CCO3)CC1)C(F)(F)F [Compound 74A, N-((1r,4r)-4-(((R)-1,1,1-Trifluoropropan-2-yl)amino)cyclohexyl)-5,6-dihydrobenzo[f]imidazo[1,5-d][1,4]oxazepine-10-carboxamide]
16 | < 30 | 1 to 10 | O=C(N[C@H]1CC[C@@H](OCCC(F)F)CC1)c1ccc2c(c1)-c1cncn1CCO2 [Compound 77A, N-((1s,4s)-4-(3,3-Difluoropropoxy)cyclohexyl)-5,6-dihydrobenzo[f]imidazo[1,5-d][1,4]oxazepine-10-carboxamide]
17 | 100 to 1000 | > 100 | O=C(N[C@H]1CC[C@H](OCCC(F)F)CC1)c1ccc2c(c1)-c1cncn1CCO2 [Compound 78A, N-((1r,4r)-4-(3,3-Difluoropropoxy)cyclohexyl)-5,6-dihydrobenzo[f]imidazo[1,5-d][1,4]oxazepine-10-carboxamide]
18 | 100 to 1000 | 10 to 100 | O=C(N[C@H]1CC[C@@H](OCCCF)CC1)c1ccc2c(c1)-c1cncn1CCO2 [Compound 79A, N-((1s,4s)-4-(3-Fluoropropoxy)cyclohexyl)-5,6-dihydrobenzo[f]imidazo[1,5-d][1,4]oxazepine-10-carboxamide]
19 | < 30 | 1 to 10 | O=C(N[C@H]1CC[C@H](OCCCF)CC1)c1ccc2c(c1)-c1cncn1CCO2 [Compound 80A, N-((1r,4r)-4-(3-Fluoropropoxy)cyclohexyl)-5,6-dihydrobenzo[f]imidazo[1,5-d][1,4]oxazepine-10-carboxamide]
20 | < 30 | 1 to 10 | COCCOc1ncc(NC(=O)c2ccc3c(c2)-c2cncn2CCO3)cn1 [Compound 81A, N-(2-(2-Methoxyethoxy)pyrimidin-5-yl)-5,6-dihydrobenzo[f]imidazo[1,5-d][1,4]oxazepine-10-carboxamide]
21 | < 30 | 1 to 10 | O=C(N[C@H]1CC[C@H](NC2CCC2(F)F)CC1)c1ccc2c(c1)-c1cncn1CCO2 (stereo partly drawn) [Compound 82A, N-((1r,4r)-4-((2,2-Difluorocyclobutyl)amino)cyclohexyl)-5,6-dihydrobenzo[f]imidazo[1,5-d][1,4]oxazepine-10-carboxamide]
22 | 100 to 1000 | 10 to 100 | CC(C)(F)CN[C@H]1CC[C@H](NC(=O)c2ccc3c(c2)-c2cncn2CCO3)CC1 [Compound 83A, N-((1r,4r)-4-((2-Fluoro-2-methylpropyl)amino)cyclohexyl)-5,6-dihydrobenzo[f]imidazo[1,5-d][1,4]oxazepine-10-carboxamide]
23 | < 30 | 1 to 10 | O=C(NC1CC(F)(F)C1)c1ccc2c(c1)-c1cncn1CCO2 [Compound 84A, N-(3,3-Difluorocyclobutyl)-5,6-dihydrobenzo[f]imidazo[1,5-d][1,4]oxazepine-10-carboxamide]
24 | < 30 | 1 to 10 | CS(=O)(=O)CCCO[C@H]1CC[C@H](NC(=O)c2ccc3c(c2)-c2cncn2CCO3)CC1 [Compound 85A, N-((1r,4r)-4-(3-(Methylsulfonyl)propoxy)cyclohexyl)-5,6-dihydrobenzo[f]imidazo[1,5-d][1,4]oxazepine-10-carboxamide]
25 | 100 to 1000 | > 100 | CS(=O)(=O)CCCO[C@H]1CC[C@@H](NC(=O)c2ccc3c(c2)-c2cncn2CCO3)CC1 [Compound 86A, N-((1s,4s)-4-(3-(Methylsulfonyl)propoxy)cyclohexyl)-5,6-dihydrobenzo[f]imidazo[1,5-d][1,4]oxazepine-10-carboxamide]
26 | < 30 | < 1 | C[C@H](N[C@H]1CC[C@H](NC(=O)c2ccc3c(c2)-c2cncn2CCO3)CC1)C(F)(F)F [Compound 87A, N-((1r,4r)-4-(((S)-1,1,1-Trifluoropropan-2-yl)amino)cyclohexyl)-5,6-dihydrobenzo[f]imidazo[1,5-d][1,4]oxazepine-10-carboxamide]
27 | < 30 | < 1 | CC(C)(N[C@H]1CC[C@H](NC(=O)c2ccc3c(c2)-c2cncn2CCO3)CC1)C(F)(F)F [Compound 88A, N-((1r,4r)-4-((1,1,1-Trifluoro-2-methylpropan-2-yl)amino)cyclohexyl)-5,6-dihydrobenzo[f]imidazo[1,5-d][1,4]oxazepine-10-carboxamide]
